ChEMBL document CHEMBL4038308, “Lipophosphonoxins II: Design, Synthesis, and Properties of Novel Broad Spectrum Antibacterial Agents” (J Med Chem, 2017)
Values after ≈ are worked out from the molar mass of the structure shown. Active and inactive are the calls of the source. The rule behind the calls is not given here.

How the values were obtained:
[1] = Critical micellar concentration of the compound by capillary electrophoresis method
[2] = tested on: Escherichia coli; test: Antibacterial activity against Escherichia coli CCM 3954 after 24 hrs by microdilution method; type: functional; settings: CCM 3954, 24 h
[3] = tested on: Pseudomonas aeruginosa; test: Antibacterial activity against Pseudomonas aeruginosa CCM 3955 after 24 hrs by microdilution method; type: functional; settings: CCM 3955, 24 h
[4] = tested on: Enterococcus faecalis; test: Antibacterial activity against Enterococcus faecalis CCM 4224 after 24 hrs by microdilution method; type: functional; settings: CCM 4224, 24 h
[5] = tested on: Staphylococcus aureus; test: Antibacterial activity against Staphylococcus aureus CCM 4223 after 24 hrs by microdilution method; type: functional; settings: CCM 4223, 24 h
[6] = tested on: Bacillus subtilis; test: Antibacterial activity against Bacillus subtilis after 24 hrs by microdilution method; type: functional
[7] = tested on: Streptococcus agalactiae; test: Antibacterial activity against Streptococcus agalactiae after 24 hrs by microdilution method; type: functional
[8] = tested on: Escherichia coli; test: Antibacterial activity against Escherichia coli 16702 after 24 hrs by microdilution method; type: functional; settings: Escherichia coli, 16702, 24 h
[9] = tested on: Pseudomonas aeruginosa; test: Antibacterial activity against Pseudomonas aeruginosa 16575 after 24 hrs by microdilution method; type: functional; settings: Pseudomonas aeruginosa, 16575, 24 h
[10] = tested on: Staphylococcus aureus; test: Antibacterial activity against methicillin-resistant Staphylococcus aureus 4591 clinical isolates after 24 hrs by microdilution method; type: functional; settings: Staphylococcus aureus, 4591, 24 h
[11] = tested on: Staphylococcus haemolyticus; test: Antibacterial activity against fluoroquinolne-resistant Staphylococcus haemolyticus 16568 after 24 hrs by microdilution method; type: functional; settings: Staphylococcus haemolyticus, 16568, 24 h
[12] = tested on: Staphylococcus epidermidis; test: Antibacterial activity against Staphylococcus epidermidis 8700/B after 24 hrs by microdilution method; type: functional
[13] = tested on: Enterococcus faecium; test: Antibacterial activity against vancomycin-resistant Enterococcus faecium 419/ana clinical isolates after 24 hrs by microdilution method; type: functional
[14] = tested on: Salmonella enteritidis; test: Antibacterial activity against Salmonella enteritidis S2-25 after 24 hrs by microdilution method; type: functional, Salmonella enterica subsp. enterica serovar Enteritidis; settings: Salmonella enterica, S2-25, 24 h
[15] = tested on: Acinetobacter baumannii; test: Antibacterial activity against Acinetobacter baumannii A3-08 after 24 hrs by microdilution method; type: functional; settings: A3-08, 24 h
[16] = tested on: Stenotrophomonas maltophilia; test: Antibacterial activity against Stenotrophomonas maltophilia S2-23 after 24 hrs by microdilution method; type: functional; settings: S2-23, 24 h
[17] = tested on: Burkholderia multivorans; test: Antibacterial activity against Burkholderia multivorans after 24 hrs by microdilution method; type: functional
[18] = tested on: Escherichia coli; test: Bactericidal activity against Escherichia coli CCM 3954 assessed as reduction in bacterial count at 12.5 mg/L after 45 mins by time kill assay; type: functional
[19] = tested on: Escherichia coli; test: Bactericidal activity against Escherichia coli CCM 3954 assessed as reduction in bacterial count at 25 mg/L after 30 mins by time kill assay; type: functional
[20] = tested on: Staphylococcus aureus; test: Bactericidal activity against Staphylococcus aureus CCM 4223 assessed as reduction in bacterial count at 25 mg/L after 6 hrs by time kill assay; type: functional
[21] = tested on: Staphylococcus aureus; test: Bactericidal activity against Staphylococcus aureus CCM 4223 assessed as reduction in bacterial count at 6.25 to 12.5 mg/L after 24 hrs by time kill assay; type: functional
[22] = tested on: Bacillus subtilis; test: Antibacterial activity against Bacillus subtilis assessed as inhibition of DNA synthesis at 1.5 mg/L after 50 mins by [3H]thymidine incorporation assay; type: functional
[23] = tested on: Bacillus subtilis; test: Antibacterial activity against Bacillus subtilis assessed as inhibition of RNA synthesis at 1.5 mg/L after 50 mins by [3H]-uridine incorporation assay; type: functional
[24] = tested on: Bacillus subtilis; test: Antibacterial activity against Bacillus subtilis assessed as inhibition of peptidoglycan synthesis at 1.5 mg/L after 50 mins by [3H]-N-acetylglucosamine incorporation assay; type: functional
[25] = tested on: Bacillus subtilis; test: Antibacterial activity against Bacillus subtilis assessed as inhibition of plasma membrane lipids synthesis at 1.5 mg/L after 50 mins by [3H]-sodium acetate incorporation assay; type: functional
[26] = tested on: Bacillus subtilis; test: Antibacterial activity against Bacillus subtilis assessed as inhibition of protein synthesis at 1.5 mg/L after 50 mins by [35S]-methionine incorporation assay; type: functional
[27] = Pore forming activity across black lipid bilayer membranes assessed as induction of variation in membrane current by measuring pore conductance at 5 ug/ml
[28] = tested on: Lipid bilayer; test: Binding affinity to DOPG large unilamellar vesicle assessed as carboxyfluorescein leakage at 10 mg/L after 20 secs by fluorescence-based assay relative to control
[29] = tested on: Staphylococcus aureus; test: Induction of cytoplasmic membrane permeabilization in Staphylococcus aureus CCM 4223 assessed as increase in propidium iodide fluorescence intensity at 5 mg/L by spectrofluorometric analysis; type: functional
[30] = tested on: Staphylococcus epidermidis; test: Induction of cytoplasmic membrane permeabilization in Staphylococcus epidermidis 8700/B assessed as increase in propidium iodide fluorescence intensity at 5 mg/L by spectrofluorometric analysis; type: functional
[31] = tested on: Escherichia coli; test: Induction of cytoplasmic membrane permeabilization in Escherichia coli CCM 3954 assessed as increase in propidium iodide fluorescence intensity at 5 mg/L by spectrofluorometric analysis; type: functional
[32] = tested on: Pseudomonas aeruginosa; test: Induction of cytoplasmic membrane permeabilization in Pseudomonas aeruginosa CCM 3955 assessed as increase in propidium iodide fluorescence intensity at 5 mg/L by spectrofluorometric analysis; type: functional
[33] = tested on: J774.A1; test: Cytotoxicity against mouse J774A.1 cells assessed as damage to cell membrane by measuring propidium iodide intake at 5 mg/L by spectrofluorometric analysis; type: cell-based
[34] = tested on: BJ; test: Cytotoxicity against human BJ cells assessed as reduction in cell viability after 48 hrs by ATPlite reagent based assay
[35] = tested on: TERT-RPE1; test: Cytotoxicity against human RPE1 cells assessed as reduction in cell viability after 48 hrs by ATPlite reagent based assay; settings: tert-rpe1, 48 h
[36] = tested on: HepG2; test: Cytotoxicity against human HepG2 cells assessed as reduction in cell viability after 48 hrs by ATPlite reagent based assay; settings: hepg2, 48 h
[37] = tested on: TERT-RPE1; test: Induction of apoptosis in human RPE1 cells assessed as caspase 3/7 activation up to 80 mg/L after 4 hrs by caspase-Glo 3/7 luminescent assay; type: cell-based; settings: tert-rpe1, 4 h
[38] = tested on: HepG2; test: Induction of apoptosis in human HepG2 cells assessed as caspase 3/7 activation up to 80 mg/L after 4 hrs by caspase-Glo 3/7 luminescent assay; type: cell-based; settings: hepg2, 4 h
[39] = tested on: TERT-RPE1; test: Cytotoxicity against human RPE1 cells assessed as disruption of cell membrane integrity after 4 hrs by CytoTox-ONE-based assay; settings: tert-rpe1, 4 h
[40] = tested on: HepG2; test: Cytotoxicity against human HepG2 cells assessed as disruption of cell membrane integrity after 4 hrs by CytoTox-ONE-based assay; settings: hepg2, 4 h
[41] = Chemical stability of compound at 50 to 500 mg/L at pH 0.18 after 24 hrs at room temperature by LC-MS analysis; type: physicochemical; settings: buffer, pH 0.18, 24 h
[42] = Chemical stability of compound at 50 to 500 mg/L at pH 5 after 24 hrs at room temperature by LC-MS analysis; type: physicochemical; settings: buffer, pH 5, 24 h
[43] = Chemical stability of compound at 50 to 500 mg/L at pH 8.8 after 24 hrs at room temperature by LC-MS analysis; type: physicochemical; settings: buffer, pH 8.8, 24 h
[44] = tested on: Mus musculus; test: Toxicity in ICR mouse assessed as mortality up to 2000 mg/kg, po administered as single dose measured for 2 weeks; type: organism-based; settings: in vivo, 336 h
[45] = tested on: Mus musculus; test: Toxicity in ICR mouse assessed as body weight loss up to 2000 mg/kg, po administered as single dose measured for 2 weeks; type: organism-based; settings: in vivo, 336 h
[46] = tested on: Oryctolagus cuniculus; test: Toxicity in topically applied rabbit assessed as skin irritation measured up to 14 days post dose; settings: in vivo, topical_or_ocular, 336 h
[47] = tested on: Oryctolagus cuniculus; test: Toxicity in topically dosed rabbit assessed as skin irritation by measuring behavioral abnormalities measured up to 7 days post dose; type: organism-based; settings: in vivo, topical_or_ocular, 168 h
[48] = tested on: TERT-RPE1; test: Cytotoxicity against human RPE1 cells assessed as disruption of cell membrane integrity at >80 mg/L after 4 hrs by CytoTox-ONE-based assay; settings: tert-rpe1, 4 h
[49] = Chemical stability of compound at 50 to 500 mg/L at pH 0.18 after 24 hrs at 37 degC by LC-MS analysis; type: physicochemical; settings: buffer, pH 0.18, 24 h
[50] = Chemical stability of compound at 50 to 500 mg/L at pH 5 after 24 hrs at 37 degC by LC-MS analysis; type: physicochemical; settings: buffer, pH 5, 24 h
[51] = Chemical stability of compound at 50 to 500 mg/L at pH 8.8 after 24 hrs at 37 degC by LC-MS analysis; type: physicochemical; settings: buffer, pH 8.8, 24 h
[52] = tested on: Oryctolagus cuniculus; test: Toxicity in topically applied rabbit assessed as skin irritation measured by measuring physiological abnormalities up to 7 days post dose; settings: in vivo, topical_or_ocular, 168 h
[53] = tested on: Bacillus subtilis; test: Antibacterial activity against Bacillus subtilis assessed as inhibition of DNA synthesis at 2 mg/L after 50 mins by [3H]thymidine incorporation assay; type: functional
[54] = tested on: Bacillus subtilis; test: Antibacterial activity against Bacillus subtilis assessed as inhibition of RNA synthesis at 2 mg/L after 50 mins by [3H]-uridine incorporation assay; type: functional
[55] = tested on: Bacillus subtilis; test: Antibacterial activity against Bacillus subtilis assessed as inhibition of peptidoglycan synthesis at 2 mg/L after 50 mins by [3H]-N-acetylglucosamine incorporation assay; type: functional
[56] = tested on: Bacillus subtilis; test: Antibacterial activity against Bacillus subtilis assessed as inhibition of plasma membrane lipids synthesis at 2 mg/L after 50 mins by [3H]-sodium acetate incorporation assay; type: functional
[57] = tested on: Bacillus subtilis; test: Antibacterial activity against Bacillus subtilis assessed as inhibition of protein synthesis at 2 mg/L after 50 mins by [35S]-methionine incorporation assay; type: functional

CCCCCCCCCCCCCCCOP(=O)(CCN(CCCNC(=N)N)CCCNC(=N)N)OC[C@H]1O[C@@H](n2ccc(=O)[nH]c2=O)[C@H](O)[C@@H]1O (some centres not stated)
CMC [1]: 1.42 mM
MIC [2]: 0.78 µg/mL (≈ 1.03 µM)
MIC [3]: 0.78 µg/mL (≈ 1.03 µM)
MIC [4]: 25 µg/mL (≈ 32.9 µM)
MIC [5]: 3.13 µg/mL (≈ 4.12 µM)
MIC [6]: 0.39 µg/mL (≈ 0.513 µM)
MIC [7]: 1.56 µg/mL (≈ 2.05 µM)
MIC [8]: 0.78 µg/mL (≈ 1.03 µM)
MIC [9]: 1.56 µg/mL (≈ 2.05 µM)
MIC [10]: 3.13 µg/mL (≈ 4.12 µM)
MIC [11]: 1.56 µg/mL (≈ 2.05 µM)
MIC [12]: 1.56 µg/mL (≈ 2.05 µM)
MIC [13]: 50 µg/mL (≈ 65.8 µM)
MIC [14]: 1.56 µg/mL (≈ 2.05 µM)
MIC [15]: 3.13 µg/mL (≈ 4.12 µM)
MIC [16]: 3.13 µg/mL (≈ 4.12 µM)
MIC [17]: 25 µg/mL (≈ 32.9 µM)
Activity [18]: Active
Activity [19]: Active
Activity [20]: Active
Activity [21]: Active
inhibition [22]: inactive
inhibition [23]: inactive
inhibition [24]: inactive
inhibition [25]: inactive
inhibition [26]: inactive
Activity [27]: 23 to 168 pS
Activity [28]: < 85%
Activity [29]: Active
Activity [30]: Active
Activity [31]: Active
Activity [32]: Active
Activity [33]: Non-Toxic
Activity [34]: 29.6 mg/L
Activity [35]: 39.8 mg/L
Activity [36]: 36.7 mg/L
Activity [37]: Non-Toxic
Activity [38]: Non-Toxic
Activity [39]: Non-Toxic
Activity [40]: Non-Toxic
Stability [41]: Stable
Stability [42]: Stable
Stability [43]: Stable
Activity [44]: Non-Toxic
Activity [45]: Non-Toxic
Activity [46]: Non-Toxic
Activity [47]: Non-Toxic
Activity [48]: Non-Toxic
Stability [49]: Stable
Stability [50]: Stable
Stability [51]: Stable
Activity [52]: Non-Toxic

CC1(C)S[C@@H]2[C@H](NC(=O)[C@H](N)c3ccccc3)C(=O)N2[C@H]1C(=O)O
inhibition [53]: Active
inhibition [54]: Active
inhibition [55]: Active
inhibition [56]: Active
inhibition [57]: Active
